In patent US6949682B2, “Cinnamaldehyde derivatives inhibiting growth of tumor cell and regulating cell cycle, preparations and pharmaceutical compositions thereof” (Korea Research Institute of Bioscience and Biotechnology, priority 2003, dated 2005):

What was measured:
[1] = test system: HCT116 colon cancer cell; experiment: Growth inhibition of HCT116 colon cancer cell (GI50); assay type: cell-based, human; conditions: Homo sapiens, HCT-116; concentration at which growth of HCT116 colon cancer cell was inhibited to the 50%
Procedure: (§1) Colon cancer cell of human SW620(ATCC) or HCT116 (ATCC) was transferred to T25 flask(culture 7.5 ml) by RPMI1640 (Gibco/BR) medium or DMEM medium (Gibco/BR) containing 10% FBS (fetal bovine serum), respectively. Thereafter the cell was incubated for 12 hours at 37° C. in incubator. After the cell was incubated for 12 hours, 7.5 μl of DMSO was added to a culture used as control group, for the final concentration to be 0.1%. In order to use in experiment, samples of various concentrations were prepared by dissolving the cinnamaldehyde derivatives of the present invention in DMSO. 7.5 μl of the prepared samples was added to a culture used as experimental group. Cell of control or experimental group was incubated for 48 hours.
(§2) HCT116 GI50 (μM) and SW620 GI50 (μM) mean to be the concentrations at which growth of HCT116 and SW620 colon cancer cell was inhibited to the 50%, respectively.

[2] = test system: SW620 colon cancer cell; experiment: Growth inhibition of SW620 colon cancer cell (GI50); assay type: cell-based, human; conditions: Homo sapiens, SW-620; concentration at which growth of SW620 colon cancer cell was inhibited to the 50%
Procedure: as §1, §2

[3] = test system: SW620 colon cancer cell; experiment: Cell cycle analysis (Experimental Example 1), SW620; assay type: cell-based, human; conditions: SW620, 1 μM, 48 hours, percentage of cells in G2/M
Procedure: as §1
(§3) For cell cycle analysis, incubated cell was removed from medium. Thereafter the incubated cell was separated from the flask by trypsin. Thus the cell was centrifuged at 300 g for 5 min. The cell was washed with phosphate buffer solution (PBS) to remove the residue medium from the cell. 3 ml of ethanol (70%) was added to the cell. The cell was fixed by being positioned at −20° C. for 12 hours. The fixed cell was centrifuged at 300 g for 3 min and washed with the cold PBS for two times to remove residual ethanol. The cell solution prepared by adding 500 μl of PBS to the cell was well mixed to produce the homogeneous state. 100 μg/ml RNase A 50 μl was added to the cell solution, thereafter the resulting cell solution was positioned at 37° C. for 30 min. The chromosomal DNA was stained by further adding 1 mg/ml propidium iodide (soluble in PBS) thereto.
(§4) Distribution of cell cycle of 20,000 stained cells were measured by using Becton-Dickinson FACS caliber (San Jose, Calif., USA).

[4] = test system: HCT116 colon cancer cell; experiment: Cell cycle analysis (Experimental Example 1), HCT116; assay type: cell-based, human; conditions: HCT116, 1 μM, 48 hours, percentage of cells in G2/M
Procedure: as §1, §3, §4

[5] = test system: HCT116 colon cancer cell; experiment: Cell cycle distribution (Experimental Example 2), HCT116; assay type: cell-based, human; conditions: for Amount of cell (%) G0-G1 / Amount of cell (%) G2-M / Amount of cell (%) S: HCT116, 1 μM, 48 hours; for Holding of cancer cell in stage G2/M (in words): HCT116 and SW620, 1 μM, summary of table 3
Procedure: (§5) SW620 or HCT116 as colon cancer cell was inoculated in 100 mm plate to the amount of 2×10^6 cells. Then, cinnamaldehyde derivative of the present invention (compound 16 or compound 35) was added to the plate in the concentration of 1 μM. Thereafter, the colon cancer cell was incubated for 48 hours. Trypsin was added to the plate, to separate the colon cancer cell from the plate. And 5 ml of PBS (phosphate buffer solution) was added to the plate, to prepare the cell mixture. The cell mixture was centrifuged at 1,500 rpm for 5 min for two times, to remove trypsin from the mixture. The residue was washed with PBS for two times, thus the resulting supernatant was discarded. 1 ml of PBS and 3˜5 ml of cool ethanol(70%) was added to the resulting residue. The cell was fixed by being positioned at −20° C. for 12 hours. The fixed cell was centrifuged at 1,500 rpm for 5 min and washed with the cool PBS for two times to remove residual ethanol. RNase(10 μg/ml) was added to the fixed cell, to remove RNA. And DNA of the fixed cell was dyed with PI(propidium iodide, 50 μg/ml). After the fixed cell was positioned at 37° C. for 30 min, cell cycles of 20,000 cells were measured by using Becton-Dickinson FACS caliber (San Jose, Calif., USA).
(§6) For control group, the same procedure was accomplished except that DMSO was used in place of the cinnamaldehyde derivative.

[6] = test system: SW620 colon cancer cell; experiment: Cell cycle distribution (Experimental Example 2), SW620; assay type: cell-based, human; conditions: SW620, 1 μM, 48 hours
Procedure: as §5, §6

| GI50 [1] [µM] | GI50 [2] [µM] | melting point [°C] | Compound | G2/M at 1 μM(%) SW620 [3] [%] | G2/M at 1 μM(%) HCT116 [4] [%] | Amount of cell (%) G0-G1 [5] [%] | Amount of cell (%) G2-M [5] [%] | Amount of cell (%) S [5] [%] | Holding of cancer cell in stage G2/M (in words) [5] | Amount of cell (%) G0-G1 [6] [%] | Amount of cell (%) G2-M [6] [%] | Amount of cell (%) S [6] [%] |
| --- | --- | --- | --- | --- | --- | --- | --- | --- | --- | --- | --- | --- |
| 1.41 | 0.63 | 120 to 121 | O=CC(=Cc1ccccc1OCc1ccccc1)C(C=O)=Cc1ccccc1OCc1ccccc1 [Compound 16, 2,3-bis-(2-benzyloxy-benzylidene)succinaldehyde] | 80 | 43 | 22.36 | 43.29 | 34.35 | held a cancer cell in the stage G2/M | 6.64 | 80.21 | 13.15 |
| 17.7 | 66.3 | 149 to 151 | COc1cc(C=C(C=O)C(C=O)=Cc2ccc(OC(C)=O)c(OC)c2)ccc1OC(C)=O [Compound 25, 2,3-bis-(4-acetyloxy-3-methoxy-benzylidene)succinaldehyde] | 48 | 43 |  |  |  |  |  |  |  |
| 2.95 | 13.9 | 107 to 110 | COc1cc(C=C(C=O)C(C=O)=Cc2ccc(OC(=O)c3ccccc3)c(OC)c2)ccc1OC(=O)c1ccccc1 [Compound 27, 2,3-bis-(4-benzoyloxy-3-methoxy-benzylidene)succinaldehyde] | 77 | 79 |  |  |  |  |  |  |  |
| 0.82 | 1.06 | 200 to 202 | CC(C)Oc1ccc(C=C(C=O)C(C=O)=Cc2ccc(OC(C)C)cc2)cc1 [Compound 29, 2,3-bis-(4-isopropyloxy-benzylidene)succinaldehyde] | 47 | 49 |  |  |  |  |  |  |  |
| 3.58 | 7.38 | 119 to 120 | O=CC(=Cc1ccc(OCc2ccccc2)cc1)C(C=O)=Cc1ccc(OCc2ccccc2)cc1 [Compound 31, 2,3-bis-(4-benzyloxy-benzylidene)succinaldehyde] | 62 | 64 |  |  |  |  |  |  |  |
| 11.9 | 5.97 | 207 to 208 | O=CC(=Cc1ccc(OC(=O)c2ccccc2)cc1)C(C=O)=Cc1ccc(OC(=O)c2ccccc2)cc1 [Compound 32, 2,3-bis-(4-benzoyloxy-benzylidene)succinaldehyde] | 52 | 56 |  |  |  |  |  |  |  |
| 7.43 | 5.57 | 197 to 199 | O=CC(=Cc1ccc(OC(=O)c2ccccc2F)cc1)C(C=O)=Cc1ccc(OC(=O)c2ccccc2F)cc1 [Compound 33, 2,3-bis-(4-(2-fluorobenzoyloxy)benzylidene)succinaldehyde] | 71 | 72 |  |  |  |  |  |  |  |
| 30.4 | 16.7 | 223 to 225 | O=CC(=Cc1ccc(OC(=O)c2ccc(Br)cc2)cc1)C(C=O)=Cc1ccc(OC(=O)c2ccc(Br)cc2)cc1 [Compound 34, 2,3-bis-(4-(4-bromobenzoyloxy)benzylidene)succinaldehyde] | 62 | 60 |  |  |  |  |  |  |  |
| 5.23 | 0.72 | 218 to 220 | CN1CCN(c2ccccc2/C=C(C=O)/C(C=O)=C/c2ccccc2N2CCN(C)CC2)CC1 [Compound 35, 2,3-bis-(2-(N-methylpiperazine)benzylidene)succinaldehyde] | 79 | 52 | 15.52 | 52.11 | 32.37 | held a cancer cell in the stage G2/M | 8.74 | 78.53 | 12.73 |
| 7.5 | 6.3 | 193 to 194 | O=CC(=Cc1cccc(OCc2ccc(Cl)cc2)c1)C(C=O)=Cc1cccc(OCc2ccc(Cl)cc2)c1 [Compound 36, 2,3-bis-(3-(4-chlorobenzyloxy)-benzylidene)succinaldehyde] | 42 | 41 |  |  |  |  |  |  |  |
| 3.4 | 5.1 | 117 to 119 | COc1ccc(COc2cccc(C=C(C=O)C(C=O)=Cc3cccc(OCc4ccc(OC)cc4)c3)c2)cc1 [Compound 37, 2,3-bis-(3-(4-methoxybenzyloxy)-benzylidene)succinaldehyde] | 46 | 35 |  |  |  |  |  |  |  |
| 3.8 | 2.2 | 208 to 209 | O=CC(=Cc1ccc(OCc2ccc(Cl)cc2)cc1)C(C=O)=Cc1ccc(OCc2ccc(Cl)cc2)cc1 [Compound 38, 2,3-bis-(4-(4-chlorobenzyloxy)-benzylidene)succinaldehyde] | 53 | 44 |  |  |  |  |  |  |  |
| 3.7 | 6.8 | 218 to 220 | COc1ccc(COc2ccc(C=C(C=O)C(C=O)=Cc3ccc(OCc4ccc(OC)cc4)cc3)cc2)cc1 [Compound 39, 2,3-bis-(4-(4-methoxybenzyloxy)-benzylidene)succinaldehyde] | 48 | 38 |  |  |  |  |  |  |  |
